In US20200339548A1, “PYRIMIDINE DERIVATIVES AND THEIR USE FOR THE TREATMENT OF CANCER” (Adorx Therapeutics Limited, priority 2017, published 2020):
Counter-ions that a name gives are not always drawn. Like-named read-outs stand apart in the source and are kept apart here.

Legend:
Adenosine A1 receptor = biological target: T1, Adenosine A1 receptor (Homo sapiens, UniProt P30542); experiment: Adenosine receptor TR-FRET binding assay, A1; conditions: Table 9, further testing; displacement of 100 nM CA200645, CHO cell membranes
T1 construct: expressed in transfected cells; host or cells: CHO cell membranes
T1 sequence (P30542 1-326): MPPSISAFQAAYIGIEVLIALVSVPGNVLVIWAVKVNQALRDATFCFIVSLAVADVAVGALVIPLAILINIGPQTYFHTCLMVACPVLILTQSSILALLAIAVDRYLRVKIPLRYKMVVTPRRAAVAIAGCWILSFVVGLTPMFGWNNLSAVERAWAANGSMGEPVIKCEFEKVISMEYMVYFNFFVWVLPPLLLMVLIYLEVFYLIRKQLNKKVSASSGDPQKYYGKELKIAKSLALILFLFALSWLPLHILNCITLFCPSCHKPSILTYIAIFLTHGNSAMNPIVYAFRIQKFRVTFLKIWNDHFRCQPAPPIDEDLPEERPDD
Summary of the method: (§1)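 Competition TR-FRET binding in CHO cell membranes expressing terbium-labelled human receptors, displacing fluorescent XAC (CA200645; 30 nM for A2b, 100 nM for A1, A2a, A3); 2 h at room temperature with saponin buffer, 1% DMSO. 665/620 nm ratio; non-specific with 10 μM XAC; Ki by Cheng–Prusoff from IC50.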

Human PBMCs = experiment: CD3/CD28 stimulated IL-2 release NECA reversal assay; assay type: cell-based; conditions: Homo sapiens, PBMC, read-out: IL-2 release NECA reversal IC50 (nM), 1 uM NECA, 24 hours
Experimental: Blood is drawn from healthy volunteers using sodium citrate as the anticoagulant (0.3% final concentration). […] 50 μl diluted compound mix is added to the cells, to obtain final concentrations of 1 ug/ml CD28 antibody, 1 uM NECA and 0.003-10 μM adenosine receptor antagonist. Assay plates are incubated for 24 hours at 37° C. in a humidified incubator.

Adenosine A2a receptor = biological target: T2, Adenosine A2a receptor (Homo sapiens, UniProt P29274); experiment: Adenosine receptor TR-FRET binding assay, A2a; conditions: displacement of 100 nM CA200645, CHO cell membranes
T2 construct: expressed in transfected cells; host or cells: CHO cell membranes
Summary of the method: as §1

Adenosine A3 receptor = biological target: T3, Adenosine A3 receptor (Homo sapiens, UniProt P0DMS8); experiment: Adenosine receptor TR-FRET binding assay, A3
T3 construct: expressed in transfected cells; host or cells: CHO cell membranes
T3 sequence (P0DMS8 1-318): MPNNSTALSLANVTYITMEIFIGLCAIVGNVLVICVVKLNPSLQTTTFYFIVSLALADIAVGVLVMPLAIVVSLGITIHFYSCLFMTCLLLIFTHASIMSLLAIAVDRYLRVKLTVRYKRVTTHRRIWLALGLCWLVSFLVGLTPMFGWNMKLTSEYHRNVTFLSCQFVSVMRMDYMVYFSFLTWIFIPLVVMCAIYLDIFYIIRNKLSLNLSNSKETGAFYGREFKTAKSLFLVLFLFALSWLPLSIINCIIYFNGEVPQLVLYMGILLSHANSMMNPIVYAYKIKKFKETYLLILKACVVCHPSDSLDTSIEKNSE
Experimental: All FRET binding experiments were conducted at room temperature in white 384-well plates, in assay binding buffer containing 1× LabMed (Cisbio, France), 100 μg/mL saponin, 1% DMSO and 0.02% pluronic acid. Binding of the fluorescently labelled Adenosine receptor antagonist XAC (CA200645, FRET acceptor) to terbium-labelled A1, A2a, A2b and A3 adenosine receptors (FRET donors) was detected by time-resolved FRET due to the close proximity of the donor and acceptor in a binding event. To investigate the ability of unlabelled test compounds to bind to Adenosine A1, A2a, A2b and A3 receptors, dose response curves were constructed that determined the ability of a range of concentrations to inhibit the binding of 30 nM CA200645 to the A2b receptor and 100 nM CA200645 to the A1, A2a, and A3 receptor.
Serial dilution (1:3 dilutions) of test compounds in neat DMSO and transfer of a 400 nL sample of test compound into the assay plate was carried out using the Mosquito (TTP Labtech, UK). The compound samples were incubated for 2 hours at room temperature with a fixed concentration of CA200645 defined for each receptor (see above) and CHO cell membranes containing the human Adenosine A1 (0.5 μg/well), A2a (0.3 μg/well), A2b (1 μg/well) or A3 (1 μg/well) receptor in 40 μL of assay buffer. Total and non-specific binding of CA200645 was determined in the absence and presence of 10 μM XAC, respectively.
Following 2 hours incubation, the level of CA200645 binding was detected on a Pherastar FSX (BMG Labtech, Germany) using standard TR-FRET settings. The terbium donor was excited with three laser flashes at a wavelength of 337 nm, and donor and acceptor emission was detected at 620 nm and 665 nm wavelengths, respectively. FRET ratios were obtained by multiplying the acceptor/donor ratio value by 10,000. Specific binding was determined by subtracting the non-specific binding FRET ratio from the total binding FRET ratio. Compound IC50 curves were analysed using GraphPad Prism 7.0 (GraphPad, USA) and Ki affinity values were determined from the obtained […] values using the method of Cheng and Prusoff.

Adenosine A2b receptor = biological target: T4, Adenosine A2b receptor (Homo sapiens, UniProt P29275); experiment: Adenosine receptor TR-FRET binding assay, A2b; conditions: Table 9, further testing; displacement of 30 nM CA200645, CHO cell membranes
T4 construct: expressed in transfected cells; host or cells: CHO cell membranes
T4 sequence (P29275 1-332): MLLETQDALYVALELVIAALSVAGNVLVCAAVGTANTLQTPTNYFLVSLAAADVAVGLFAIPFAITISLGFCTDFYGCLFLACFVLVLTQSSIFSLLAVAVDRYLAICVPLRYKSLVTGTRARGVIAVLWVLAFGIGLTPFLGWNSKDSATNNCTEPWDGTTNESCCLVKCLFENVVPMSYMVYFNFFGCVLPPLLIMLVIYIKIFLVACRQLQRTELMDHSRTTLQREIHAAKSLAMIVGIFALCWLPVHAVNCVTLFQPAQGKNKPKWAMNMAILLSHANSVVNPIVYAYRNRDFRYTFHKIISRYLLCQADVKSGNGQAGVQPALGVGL
Summary of the method: as §1

[1] = Table 9, further testing, displacement of 100 nM CA200645, CHO cell membranes, read-out: A3 Ki

T2 sequence (P29274 whole entry): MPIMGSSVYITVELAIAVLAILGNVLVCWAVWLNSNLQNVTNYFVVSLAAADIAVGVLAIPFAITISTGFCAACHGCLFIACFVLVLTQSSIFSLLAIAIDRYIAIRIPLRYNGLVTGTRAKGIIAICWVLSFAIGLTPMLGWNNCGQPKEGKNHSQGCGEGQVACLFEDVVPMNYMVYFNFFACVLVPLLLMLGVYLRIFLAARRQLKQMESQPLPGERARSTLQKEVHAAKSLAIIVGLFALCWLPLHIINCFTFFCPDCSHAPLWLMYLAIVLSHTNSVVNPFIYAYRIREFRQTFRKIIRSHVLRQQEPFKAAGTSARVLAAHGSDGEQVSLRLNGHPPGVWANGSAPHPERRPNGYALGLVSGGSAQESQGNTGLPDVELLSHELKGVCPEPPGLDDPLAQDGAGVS

| SMILES | Ki (Adenosine A1 receptor) [nM] | IC50 (Human PBMCs) [nM] | Ki (Adenosine A2a receptor; Table 8, Cheng and Prusoff) [nM] | Ki (Adenosine A2a receptor; Table 9, further testing) [nM] | Ki (Adenosine A3 receptor) [nM] | Ki (Adenosine A2b receptor) [nM] | Ki (Adenosine A3 receptor; [1]) [nM] |
| --- | --- | --- | --- | --- | --- | --- | --- |
| Nc1nc(-c2ccco2)ncc1C(=O)NC1CCc2ccccc21 (centres unmarked) [Example 5.23, 4-Amino-2-(2-furyl)-N-indan-1-yl-pyrimidine-5-carboxamide] | 4750 | 381 | 10 | 10 |  |  |  |
| COc1cc(CNC(=O)c2cnc(-c3cccc(F)c3)nc2N)cc(OC)c1 [Example 10.9, 4-Amino-N-[(3,5-dimethoxyphenyl)methyl]-2-(3-fluorophenyl)pyrimidine-5-carboxamide] | 811 |  | 661 | 661 | 1160 | 1170 |  |
| Nc1nc(-c2ccco2)ncc1C(=O)NCc1cccc(C(F)(F)F)c1 [Example 5.29, 4-Amino-2-(2-furyl)-N-[[3-(trifluoromethyl)phenyl]methyl]pyrimidine-5-carboxamide] | 1700 |  | 52 | 52 |  | 5470 | 2460 |
| COc1cccc(F)c1CNC(=O)c1cnc(-c2cccc(F)c2)nc1N [Example 5.2, 4-Amino-N-[(2-fluoro-6-methoxy-phenyl)methyl]-2-(3-fluorophenyl)pyrimidine-5-carboxamide] | 66 | 1920 | 20 | 20 |  | 113 |  |
| Cc1cccnc1CNC(=O)c1c(N)nc(-c2ccco2)nc1OCCCN [Example 23.5, 4-Amino-6-(3-aminopropoxy)-2-(2-furyl)-N-[(3-methyl-2-pyridyl)methyl]pyrimidine-5-carboxamide dihydrochloride] | 1060 |  |  | 23 |  | 3060 | 2150 |
| CCCOc1nc(-c2ccco2)nc(N)c1C(=O)NCc1ncccc1C [Example 20.9, 4-Amino-2-(2-furyl)-N-[(3-methyl-2-pyridyl)methyl]-6-propoxy-pyrimidine-5-carboxamide] | 44 |  |  | 0.52 |  | 384 | 18 |
| Cc1cc(C)cc(CNC(=O)c2cnc(-c3ccco3)nc2N)c1 [Example 5.39, 4-Amino-N-[(3,5-dimethylphenyl)methyl]-2-(2-furyl)pyrimidine-5-carboxamide] | 521 |  |  | 21 |  | 2130 | 753 |
| Cc1ccc(-c2ncc(C(=O)NCc3ncccc3C)c(N)n2)o1 [Example 3.1, 4-Amino-2-(5-methyl-2-furyl)-N-[(3-methyl-2-pyridyl)methyl]pyrimidine-5-carboxamide] | 995 |  |  | 424 |  | 5540 | 818 |
| Nc1nc(-c2cccc(F)c2)ncc1C(=O)NCc1cc(F)cc(F)c1 [Example 10.7, 4-Amino-N-[(3,5-difluorophenyl)methyl]-2-(3-fluorophenyl)pyrimidine-5-carboxamide] | 238 |  | 104 | 104 |  | 2420 | 778 |
| CCOc1cccc(F)c1CNC(=O)c1cnc(-c2cccc(F)c2)nc1N [Example 5.3, 4-Amino-N-[(2-ethoxy-6-fluoro-phenyl)methyl]-2-(3-fluorophenyl)pyrimidine-5-carboxamide] |  | 1540 | 20 | 20 |  | 341 |  |
| Cc1cccnc1CNC(=O)c1c(N)nc(-c2ccco2)nc1OCC(C)C [Example 20.3, 4-Amino-2-(2-furyl)-6-isobutoxy-N-[(3-methyl-2-pyridyl)methyl]pyrimidine-5-carboxamide] | 4.1 |  |  | 0.47 |  | 174 | 1.7 |
| Nc1nc(-c2ccco2)ncc1C(=O)NCc1c(Cl)cccc1Cl [Example 5.16, 4-Amino-N-[(2,6-dichlorophenyl)methyl]-2-(2-furyl)pyrimidine-5-carboxamide] | 1350 | 102 | 0.93 | 0.64 |  | 297 |  |
| Nc1nc(-c2cccc(F)c2)ncc1C(=O)NCc1ncccc1Cl [Example 10.12, 4-Amino-N-[(3-chloro-2-pyridyl)methyl]-2-(3-fluorophenyl)pyrimidine-5-carboxamide] | 400 |  | 36 | 36 |  | 536 | 371 |
| Nc1nc(-c2ccco2)ncc1C(=O)NCc1ncccc1F [Example 5.48, 4-Amino-N-[(3-fluoro-2-pyridyl)methyl]-2-(2-furyl)pyrimidine-5-carboxamide] | 7960 |  |  | 23 |  | 420 | 3050 |
| Cc1cccnc1CNC(=O)c1c(N)nc(-c2ccco2)nc1Cl [Example 13, 4-Amino-6-chloro-2-(2-furyl)-N-[(3-methyl-2-pyridyl)methyl]pyrimidine-5-carboxamide] | 314 |  | 20 | 20 |  | 3890 | 1190 |
| Nc1nc(-c2ccco2)ncc1C(=O)NCc1cccc2c1OCO2 [Example 5.52, 4-Amino-N-(1,3-benzodioxol-4-ylmethyl)-2-(2-furyl)pyrimidine-5-carboxamide] | 4790 |  |  | 11 |  | 5130 | 3090 |
| Cc1cccnc1CNC(=O)c1nnc(-c2ccc(F)cc2)nc1N [Example 8, 5-Amino-3-(4-fluorophenyl)-N-[(3-methyl-2-pyridyl)methyl]-1,2,4-triazine-6-carboxamide] | 137 |  | 51 | 51 |  | 1100 | 24 |
| Nc1nc(-c2cccc(F)c2)ncc1C(=O)NCc1ccccc1Cl [Example 10.5, 4-Amino-N-[(2-chlorophenyl)methyl]-2-(3-fluorophenyl)pyrimidine-5-carboxamide] | 658 |  | 137 | 137 |  | 2970 | 300 |
| CCn1ccnc1CNC(=O)c1cnc(-c2ccco2)nc1N [Example 5.26, 4-Amino-N-[(1-ethylimidazol-2-yl)methyl]-2-(2-furyl)pyrimidine-5-carboxamide] | 4860 |  | 24 | 24 |  | 4690 | 6030 |
